Assay results as given in patent US11046699B2, “Pyrazolo-pyrimidin-amino-cycloalkyl compounds and their therapeutic uses” (RAPT THERAPEUTICS, INC., priority 2018, dated 2021).
pIC50: −log10 of the molar value.

Biological target: GCN2 (Homo sapiens, UniProt Q9P2K8)
Assay: GCN2 enzymatic endpoint assay: phosphorylation of GFP-eIF2α measured by TR-FRET (Lanthascreen)
Format: biochemical
Details: tested as described in Example 77; compound and/or hydrochloride, dihydrochloride or trifluoroacetic acid salt; read-out: IC 50 Activity
Procedure, shortened: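 Endpoint GCN2 reaction with low ATP (2 μM) and 80 nM GFP-eIF2α, room temperature, 90 minutes. Detection mix with EDTA and Tb-labelled antibody; 520 nm/495 nm emission ratio reported.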

GCN2, sequence (Q9P2K8 whole entry): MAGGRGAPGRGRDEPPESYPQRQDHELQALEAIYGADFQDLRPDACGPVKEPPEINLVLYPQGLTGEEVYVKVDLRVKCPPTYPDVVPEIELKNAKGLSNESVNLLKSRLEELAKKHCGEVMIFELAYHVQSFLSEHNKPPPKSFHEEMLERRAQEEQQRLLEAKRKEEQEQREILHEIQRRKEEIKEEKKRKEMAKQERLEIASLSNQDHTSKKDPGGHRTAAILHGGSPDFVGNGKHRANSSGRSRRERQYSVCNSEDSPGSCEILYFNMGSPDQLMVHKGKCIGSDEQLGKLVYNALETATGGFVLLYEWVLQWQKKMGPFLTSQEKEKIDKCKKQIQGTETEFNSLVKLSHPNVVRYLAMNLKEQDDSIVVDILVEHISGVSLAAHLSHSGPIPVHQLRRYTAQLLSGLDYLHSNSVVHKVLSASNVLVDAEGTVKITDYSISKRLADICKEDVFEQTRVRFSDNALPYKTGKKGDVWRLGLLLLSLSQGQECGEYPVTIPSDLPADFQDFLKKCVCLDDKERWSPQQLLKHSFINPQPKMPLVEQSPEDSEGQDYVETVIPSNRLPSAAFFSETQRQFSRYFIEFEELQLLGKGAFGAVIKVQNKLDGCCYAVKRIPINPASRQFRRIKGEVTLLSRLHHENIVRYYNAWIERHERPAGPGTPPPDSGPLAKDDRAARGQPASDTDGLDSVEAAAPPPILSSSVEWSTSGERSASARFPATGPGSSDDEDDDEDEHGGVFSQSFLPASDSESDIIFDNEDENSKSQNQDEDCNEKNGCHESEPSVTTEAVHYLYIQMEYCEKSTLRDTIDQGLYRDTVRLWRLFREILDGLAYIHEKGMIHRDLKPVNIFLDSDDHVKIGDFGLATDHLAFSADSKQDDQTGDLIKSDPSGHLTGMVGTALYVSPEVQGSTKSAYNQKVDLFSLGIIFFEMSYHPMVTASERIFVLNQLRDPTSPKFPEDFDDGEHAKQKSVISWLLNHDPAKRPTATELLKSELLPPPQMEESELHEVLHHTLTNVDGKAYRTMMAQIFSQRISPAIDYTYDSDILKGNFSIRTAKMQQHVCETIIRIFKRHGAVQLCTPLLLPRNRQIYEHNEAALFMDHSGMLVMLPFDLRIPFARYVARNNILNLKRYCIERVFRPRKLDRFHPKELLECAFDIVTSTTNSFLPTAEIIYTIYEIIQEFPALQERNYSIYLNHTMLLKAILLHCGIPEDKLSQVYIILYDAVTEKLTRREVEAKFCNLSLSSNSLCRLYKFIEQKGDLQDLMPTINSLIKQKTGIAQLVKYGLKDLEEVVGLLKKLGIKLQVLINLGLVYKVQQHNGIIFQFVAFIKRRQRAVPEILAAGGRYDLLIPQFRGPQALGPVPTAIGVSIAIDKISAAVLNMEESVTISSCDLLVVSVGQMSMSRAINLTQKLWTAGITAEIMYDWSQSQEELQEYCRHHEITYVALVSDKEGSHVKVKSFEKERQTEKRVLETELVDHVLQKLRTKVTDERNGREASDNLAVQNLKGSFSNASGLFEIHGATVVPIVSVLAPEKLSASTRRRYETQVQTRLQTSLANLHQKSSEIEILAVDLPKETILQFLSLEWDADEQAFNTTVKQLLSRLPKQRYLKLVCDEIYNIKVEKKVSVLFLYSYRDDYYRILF

| Compound | pIC50 |
| --- | --- |
| CNC(=O)[C@@]1(C)CC[C@@H](Nc2ncc3c(Br)nn(-c4ccc5nc(OC)ccc5c4)c3n2)C1 [(1S,3R)-3-[[3-bromo-1-(2-methoxy-6-quinolyl)pyrazolo[3,4-d]pyrimidin-6-yl]amino]-N,1-dimethyl-cyclopentane-carboxamide] | > 7.60 |
| O=C(NCCN1CCNC1=O)[C@@H]1CC[C@@H](Nc2ncc3c(Br)nn(-c4cc(F)c5ncccc5c4)c3n2)C1 [(1R,3R)-3-((3-bromo-1-(8-fluoroquinolin-6-yl)-1H-pyrazolo[3,4-d]pyrimidin-6-yl)amino)-N-(2-(2-oxoimidazolidin-1-yl)ethyl)cyclo-pentane-1-carboxamide] | 6.70 to 7.60 |
| CNC(=O)[C@]1(C)CC[C@@H](Nc2ncc3c(Br)nn(-c4cc(CN5CCNCC5=O)c5ncccc5c4)c3n2)C1 [(1R,3R)-3-[[3-bromo-1-[8-[(2-oxopiperazin-1-yl)methyl]-6-quinolyl]pyrazolo[3,4-d]pyrimidin-6-yl]amino]-N,1-dimethyl-cyclopentanecarboxamide] | 6.70 to 7.60 |
| CNC(=O)[C@]1(C)CC[C@@H](Nc2ncc3c(Br)nn(-c4ccc5[nH]c(=O)ncc5c4)c3n2)C1 [(1R,3R)-3-[[3-bromo-1-(2-oxo-1H-quinazolin-6-yl)pyrazolo[3,4-d]pyrimidin-6-yl]amino]-N,1-dimethyl-cyclopentane-carboxamide; 2,2,2-trifluoroacetic acid] | 6.70 to 7.60 |
| CNC(=O)[C@]1(C)CC[C@@H](Nc2ncc3c(Br)nn(-c4ccc5nc(N(C)C)ncc5c4)c3n2)C1 | 6.70 to 7.60 |
| CNC(=O)C1(CCS(C)(=O)=O)CC[C@@H](Nc2ncc3c(Br)nn(-c4ccc(-c5nnc(C)s5)c(CCC#N)c4)c3n2)C1 (stereo partly drawn) | 6.70 to 7.60 |
| O=C1CN(C(=O)[C@@H]2CC[C@@H](Nc3ncc4c(Br)nn(-c5ccc(-c6ncco6)cc5)c4n3)C2)CCN1 [4-((1R,3R)-3-((3-bromo-1-(4-(oxazol-2-yl)phenyl)-1H-pyrazolo[3,4-d]pyrimidin-6-yl)amino)cyclopentane-1-carbonyl)piperazin-2-one] | 6.70 to 7.60 |
| C[C@H](N)c1cc(Cl)cc(-n2nc(Br)c3cnc(N[C@@H]4CC[C@@](C)(C(=O)N5CCNCC5)C4)nc32)c1 [[(1R,3R)-3-[[1-[3-[(1S)-1-aminoethyl]-5-chloro-phenyl]-3-bromo-pyrazolo [3,4-d]pyrimidin-6-yl]amino]-1-methyl-cyclopentyl]-piperazin-1-yl-methanone] | 6.70 to 7.60 |
| CNC(=O)[C@]1(C)CC[C@@H](Nc2ncc3c(Br)nn(-c4ccc(-c5nnc(C(C)(C)O)s5)cc4)c3n2)C1 | 6.70 to 7.60 |
| O=C(O)CCNC(=O)[C@@H]1CC[C@@H](Nc2ncc3c(Br)nn(-c4cc(F)c5ncccc5c4)c3n2)C1 [3-((1R,3R)-3-((3-bromo-1-(8-fluoroquinolin-6-yl)-1H-pyrazolo[3,4-d]pyrimidin-6-yl)amino)cyclopentane-1-carboxamido) propanoic acid] | 6.70 to 7.60 |
| CNC(=O)CC1CC(Nc2ncc3c(Br)nn(-c4ccc(-c5nnc(C)s5)cc4)c3n2)C1 (stereo not drawn) | 6.70 to 7.60 |
| Cc1nnc(-c2ccc(-n3nc(Br)c4cnc(N[C@@H]5CC[C@@](C)(N)C5)nc43)cc2CCC#N)s1 | 6.70 to 7.60 |
| Cc1nnc(-c2ccc(-n3nc(Br)c4cnc(N[C@@H]5CC[C@@](C)(C(=O)N6CCCC6)C5)nc43)cc2)s1 [[(1R,3R)-3-[[3-bromo-1-[4-(5-methyl-1,3,4-thiadiazol-2-yl)phenyl]pyrazolo[3,4-d]pyrimidin-6-yl]amino]-1-methyl-cyclopentyl]-pyrrolidin-1-yl-methanone] | 6.70 to 7.60 |
| C[C@@]1(C(=O)N2CCN3C(=O)CC[C@@H]3C2)CC[C@@H](Nc2ncc3c(Br)nn(-c4cc(F)c5ncccc5c4)c3n2)C1 | 6.70 to 7.60 |
| CNC(=O)[C@@]1(C)CC[C@@H](Nc2ncc3c(Br)nn(-c4ccc(OCCO)cc4)c3n2)C1 [(1S,3R)-3-[[3-bromo-1-[4-(2-hydroxy-ethoxy)phenyl]pyrazolo[3,4-d]pyrimidin-6-yl]amino]-N,1-dimethyl-cyclopentane-carboxamide] | 6.70 to 7.60 |
